The subject of one assay is NF-κB. Nature of the assay: Activation of NF-κB induced by immune complexes in rat peritoneal macrophages (EMSA). Particulars: 4 mM, 100 μg/ml IgG/ovalbumin, 2 hours. The format is cell-based. As to the method:
Rat peritoneal cavity cells were extracted and resuspended in DMEM culture medium in the absence of serum previously supplemented with 100 U/ml penicillin, 100 μg/ml streptomycin, 50 μg/ml gentamycin, 2 mM glutamine and 0.5 mM L-arginine. Cells were incubated for 2 hours in culture plates at 37° C. and those which had not adhered to the plates were removed by washing three times with the same fresh medium. More than 95% of the adherent cells were macrophages, as assessed by their ability to engulf zymosan particles and nonspecific esterase staining. Macrophages were kept at 37° C. under a 5% CO2 atmosphere and two hours later non-adherent cells were removed and the peritoneal macrophages adhered to the plates were incubated with 100 μg/ml IgG/ovalbumin immune complexes prepared from; rabbit antiserum for 2 hours in the presence or absence (vehicle) of triflusal or HTB (4 mM, both).
After incubation, macrophages were washed twice with PBS and the degree of activation (binding to DNA) of the transcription factor NF-κB was determined using the EMSA assay, described in detail in Example 1.
On the technique in general: In EMSA bound probe runs differently from free probe, usually more slowly.

For the next assay, the system named is VCAM-1. Nature of the assay: Expression of VCAM-1 mRNA induced by TNF-α in HUVEC (RT-PCR). The format is cell-based, human. To be noted: 4 mM, TNF-α 100 U/ml, one hour. An excerpt:
Primers used for the detection of VCAM-1 mRNA by RT-PCR were designed from the human gene sequence (EMBUGenBank AC: M30257), using the Wisconsin Package Version 9.1, Genetics Computer Group (GCG), Madison, Wis. Their sequences were 5′-TGTCACTGTMGCTGCMG-3′ and 5′-TTCCAGCCTGGTTAATTC-3′, corresponding to nucleotides 1090-1108 and 1589-1572 (L. Osbom et al., Cell 1989, 59(6), 1203-1211). Total RNA was extracted from cultured cells using the guanidium isothiocyanate method (P. Chomczynski and N. Sacchi, Anal Biochem. 1987, 162(1), 156-159). cDNA first strand was synthesized from total RNA by reverse transcription reaction. […] The relative amounts of each amplified cDNA were determined by measuring the density of the bands stained with ethidium bromide using the Gel Doc documentation system and the Molecular Analyst software from Bio-Rad Laboratories, Hercules, Calif. […]
Specifically, the effect of Triflusal (4 mM) and HTB (4 mM) on the regulation of the expression of VCAM-1 mRNA induced by TNF-α (100 U/ml) in HUVEC was studied. […] The PCR products were separated by electrophoresis in a 1.8% agarose gel and were later quantified. The molecular weight of the amplification products was determined from the electrophoretic migration of DNA size standards.

For another assay, the system named is TNF-α. The assay can be described thus: TNF-α production induced by LPS in human PBMC (enzymatic immunoassay). Format: cell-based. Particulars: LPS 10 μg/ml, 19 hours. As to the method:
Mononuclear cells (PBMC) were obtained from blood of healthy donors from the Hospital de Sant Pau (Barcelona) following the procedure described in example 3. Cells were diluted at a concentration of 2 million/ml in RPMI medium supplemented with 10% fetal calf serum and were incubated (37° C., 5% CO2) with triflusal, HTB or vehicle (DMSO) in the presence of 10 μg/ml E.coli lipopolysaccharide (LPS, 026:B6 serotype; Sigma), for 19 hours. The cell suspension was then centrifuged at 2,000 g for 10 minutes at 4° C., and the resulting supernatant was stored at −70° C. for later analysis. The cytokine content was determined by enzymatic immunoassay, after 1/100 dilution of the samples.

In the case of `CC(=O)Oc1cc(C(F)(F)F)ccc1C(=O)O` [triflusal, 2-Acetyloxy-4-trifluoromethylbenzoic acid, reference compound], in the assay on NF-κB, the “inhibition of the activation of NF-κB induced by immune complexes” value was “markedly inhibit”. Further, the “inhibition of the expression of VCAM-1 mRNA induced by TNF-α” value with VCAM-1 is recorded as “completely inhibit”. Besides, the “inhibition of LPS-induced TNF-α production” value in the assay with TNF-α (0.3 mM) and in the assay with TNF-α (1 mM) was “almost completely inhibit” throughout.

For the molecule `O=C(O)c1ccc(C(F)(F)F)cc1O` [HTB, 2-hydroxy-4-trifluoromethylbenzoic acid], the “inhibition of the activation of NF-κB induced by immune complexes” value in the assay on NF-κB is given as “markedly inhibit”. Besides, in the assay with VCAM-1, the “inhibition of the expression of VCAM-1 mRNA induced by TNF-α” value is listed as “completely inhibit”. In addition, the “inhibition of LPS-induced TNF-α production” value in the assay with TNF-α (0.3 mM) and with TNF-α (1 mM) was “almost completely inhibit” each time.

For the origin of these results see patent US6509377B1, “Use of a 2-hydroxy-4-trifluoromethylbenzoic acid derivatives as inhibitors of the activation of the nuclear transcription factor NF-κB” (J. Uriach & Cia, S.A., priority 1999, dated 2003).
